Marks after values point to notes of the source that are not given here. Where a SMILES comes first, the peptide text is derived from it.
Key:
FXa [1] = biological target: T1, FXa (Homo sapiens, UniProt P00742); experiment: Determination of the inhibitory constant for FXa (kinetics, Lineweaver-Burk); format: biochemical
Experimental: Figure 3 Kinetic activity of ACH-11 to FXa in vitro. Lineweaver-Burk plot (inset) for ACH-11 kinetics in PBS at pH 8.34 and 37 °C with mixed inhibition in the presence of different concentrations of ACH-11: 0 μM (slope of 0.376), 5 μM (slope of 0.528) and 10 μM (slope of 0.698). The plots represent the mean of 3 independent measurements.
Enzyme kinetic activity was assayed as described earlier, with minor modifications. All enzymatic reactions were carried out in PBS at pH 8.34 and at 37 °C. Freshly prepared FXa at a constant concentration of 1 nM was used in each reaction. ACH-11 was dissolved in 5% DMSO. Activities were measured for 4 different fixed concentrations of substrate (73.5, 147, 294 and 588 μM) in different concentrations of ACH-11 (0, 5 and 10 μM). The rates of the enzymatic reactions were monitored at 405 nm for 20 min using the Powerwave XS (Biotek, USA).

[2] = test system: ADP-induced rabbit platelet aggregation; experiment: In vitro platelet aggregation assay, ADP-induced; format: cell-based; conditions: ADP 10 μM, rabbit PRP, turbidimetric, preincubated 5 min; 95% CI 185.36–225.02 μM
Experimental: (§1) Figure 5 ACH-11 inhibited ADP- and U46619-induced rabbit platelet aggregation in vitro. PRP was preincubated for 5 min with different concentrations of ACH-11 (0.1, 0.25, 0.5 and 1 mg/mL) or the vehicle. Platelet aggregation was initiated with ADP (10 μM), U46619 (6 μM), thrombin (3 U/mL) or collagen (2.5 μg/mL). Data are the mean ± SD (n = 3), ^****P < 0.0001 and ^*P < 0.05 versus vehicle, analyzed by one-way ANOVA, followed by the Tukey multiple comparison test.
(§2) Institute of Cancer Research (ICR) mice (18–22 g), Sprague-Dawley rats (180–250 g) and New Zealand white rabbits (2–2.5 kg) were purchased from Nanjing Qinglongshan Animal Center (Jiangsu province, China). They were housed in a temperature-controlled room at 25 ± 2 °C and 50 ± 5% relative humidity with a l2 h dark/light cycle. They were given free access to food and water ad libitum. The animals were acclimatized for at least 1 week prior to use. […]
(§3) In vitro platelet aggregation assays were performed according to the turbidimetric method, as described previously. […] The extent of platelet aggregation inhibition by ACH-11 was calculated by the following formula (2): [drawing 2] where X represents the maximum aggregation rate of 5% DMSO-treated PRP and Y represents the maximum aggregation rate of sample-treated PRP. […]

[3] = test system: U46619-induced rabbit platelet aggregation; experiment: In vitro platelet aggregation assay, U46619-induced; format: cell-based; conditions: U46619 6 μM, rabbit PRP, turbidimetric, preincubated 5 min; 95% CI 415.62–525.95 μM
Experimental: as §1, §2, §3

bleeding time in mice = experiment: Bleeding time (tail cutting method); format: in vivo; conditions: n = 10; for bleeding time: tail in saline 37 °C, 20-min recording, mean ± SD
Experimental: Fifteen minutes after the administration of ACH-11 (1, 3 and 9 mg/kg), aspirin (9 mg/kg for 30 min) and the vehicle, a 3 mm-long tail tip was cut from the mice, and the remaining tail was immersed immediately into saline at 37 °C. The accumulated bleeding time (including periods of re-bleeding) was recorded over a 20-min period. Data are presented as the mean ± SD (n = 10). ^****P < 0.0001, ^**P < 0.01 versus vehicle, analyzed by one-way ANOVA, followed by the Tukey multiple comparison test.
(§4) Institute of Cancer Research (ICR) mice (18–22 g), Sprague-Dawley rats (180–250 g) and New Zealand white rabbits (2–2.5 kg) were purchased from Nanjing Qinglongshan Animal Center (Jiangsu province, China). They were housed in a temperature-controlled room at 25 ± 2 °C and 50 ± 5% relative humidity with a l2 h dark/light cycle. They were given free access to food and water ad libitum. The animals were acclimatized for at least 1 week prior to use. All experiments were carried out in accordance with the guidelines and the regulations of the Ethical Committee of the China Pharmaceutical University. The protocols were approved by the Institutional Animal Care and Use Committee of the China Pharmaceutical University.
Bleeding time of the mice was measured by a tail cutting method as described previously. Mice were randomly divided into five groups (both sexes, 10 per group), including a vehicle group, a reference drug group (9 mg/kg of aspirin-treated) and three sample groups (1, 3 and 9 mg/kg of ACH-11-treated).

[4] = test system: ADP-induced acute pulmonary thrombosis in mice; experiment: ADP-induced acute pulmonary thrombosis in mice; format: in vivo, ICR mice; conditions: aspirin 20 mg/kg, ADP 300 mg/kg i.v.
Experimental: To examine whether ACH-11 exerted antithrombotic effects in vivo, the peptide was challenged in an acute pulmonary thrombosis model in mice. Aspirin, which is a clinical anti-thrombosis medicine that acts as a selective COX-1 inhibitor, was used as a positive control. In this model, small thrombi formed by intravenous injection of ADP (300 mg/kg) occluded pulmonary vessels, resulting in paralysis or death of the mice.
as §4
ADP-induced acute pulmonary thrombosis in mice was performed as described previously. Sixty ICR mice (18–22 g) were fasted overnight and randomly divided into 6 groups, with 10 mice per group (males and females in half). […]

[5] = test system: arterio-venous shunt thrombosis in rats; experiment: In vivo arterio-venous shunt thrombosis in rats; parameters: species or system Sprague-Dawley rats; conditions: aspirin 20 mg/kg, rat; mean ± SEM, n = 6
Experimental: Figure 6 ACH-11 inhibited arterio-venous shunt thrombosis in rats in vivo. After the administration of ACH-11 (0.33, 1 and 3 mg/kg), aspirin and the vehicle, rats were anesthetized by intraperitoneal injection of chloral hydrate (350 mg/kg), and an arterio-venous shunt tube (12 cm, containing 10-cm long of 4 braided silk thread) was installed between the right carotid artery and left jugular vein of each rat. After 20 min, the silk thread was removed from the shunt tube, and its wet weight was immediately measured. The dry weight of the thread was measured 6 h later at room temperature. The wet and dry weights of the formed thrombi were determined by subtracting the pre-experiment weights of the wet and dry 6-cm threads, respectively. Data are the mean ± SD, ^*P < 0.05, ^***P < 0.001 and ^****P < 0.0001 versus vehicle, n = 6, analyzed by one-way ANOVA, followed by the Tukey multiple comparison test. […]
Antithrombotic activity of ACH-11 in vivo was determined in a rat arterio-venous shunt thrombosis model as described previously[39] with a minor modification. […] Its wet weight was measured immediately. The dry weight of thread was measured 6 h later at room temperature. The wet and dry weights of the thrombi were determined by subtracting the pre-experimental weights of the wet and dry 6-cm threads, respectively.

FXa [6] = biological target: T1, FXa; experiment: Inhibition of amidolytic activity of FXa (chromogenic substrate S-2222); format: biochemical; conditions: sample dissolved at 5 mg/mL, PBS pH 8.34, 37 °C, n = 3, compared with the other fractions/hydrolysates
Experimental: Figure 1 Selection of enzymatic hydrolysis conditions and bioassay-directed chromatographic separation of the FXa inhibitory peptide. (a) FXa inhibitory activities of Agkistrodon acutus venom hydrolysates obtained by treatment with pepsin, papain, neutrase and alcalase at 1, 2, 3, 4, 8, 12 h intervals. (b) Agkistrodon acutus venom hydrolysate produced by neutrase (3 h) was separated on a gel filtration column packed with Sephadex G-50 (2.6 × 100 cm). The hydrolysate was eluted by distilled water at a flow rate of 0.6 mL/min, collecting fractions of 3.6 mL. (c) The FXa inhibitory activities of fractions A-E. (d) Fraction C was separated on a Hedera ODS-2 column (20 × 250 mm). (e) The FXa inhibitory activities of fractions C1-C8. […]
The lyophilized neutrase hydrolysate (0.2 g) was dissolved in 10 mL of distilled water and applied to a Sephadex G-50 column (2.6 × 100 cm) equilibrated with distilled water and eluted with the same buffer at a flow rate of 0.6 mL/min. The eluents were monitored at 280 nm and were collected at 6 min intervals. […] The UV absorbance was monitored at 214 nm.
Inhibition of the amidolytic activity of FXa was analyzed by a method described previously, with minor modifications. Enzymatic activity was measured in PBS at pH 8.34 using the chromogenic substrate method. […] The absorbance-time curve and the slope of the curve (Vi) were used to represent the activity of the enzyme. […]

T1 sequence (P00742 235-488 limits assumed): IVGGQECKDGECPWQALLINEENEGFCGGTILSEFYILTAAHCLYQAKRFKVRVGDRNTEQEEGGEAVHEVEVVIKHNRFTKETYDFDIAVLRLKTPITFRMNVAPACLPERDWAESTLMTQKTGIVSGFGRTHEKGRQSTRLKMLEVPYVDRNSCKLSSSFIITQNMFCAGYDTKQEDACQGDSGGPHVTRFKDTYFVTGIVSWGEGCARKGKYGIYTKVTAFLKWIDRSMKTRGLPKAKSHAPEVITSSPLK
T1 sequence (P00742 41-179 partner limits assumed): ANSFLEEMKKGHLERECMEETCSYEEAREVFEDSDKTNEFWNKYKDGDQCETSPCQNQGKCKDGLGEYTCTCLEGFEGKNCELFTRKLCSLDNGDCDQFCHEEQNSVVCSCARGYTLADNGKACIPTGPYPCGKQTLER

CC[C@H](C)[C@H](NC(=O)[C@H](CCCNC(=N)N)NC(=O)[C@@H]1CCCN1C(=O)[C@H](Cc1ccccc1)NC(=O)[C@@H](NC(=O)[C@@H](N)CC(C)C)[C@@H](C)O)C(=O)N[C@H](C(=O)N[C@@H](Cc1ccccc1)C(=O)N[C@H](C(=O)N[C@@H](CC(C)C)C(=O)NCC(=O)O)C(C)C)C(C)C [ACH-11, LTFPRIVFVLG] (H-LTFPRIVFVLG-OH)
Ki (FXa [1]; PBS pH 8.34, 37 °C, FXa 1 nM, S-2222 73.5-588 μM, ACH-11 0, 5, 10 μM, 5% DMSO, mixed inhibition, mean of 3 independent measurements, read-out: Ki value for FXa inhibition towards S-2222): 9.02 µM
change in Vmax and Km of FXa towards S-2222 (FXa [1]; in the presence of ACH-11, PBS pH 8.34, 37 °C): A decrease in the Vmax value with a subsequent increase in the Km value
IC50 [2]: 204 µM
IC50 [3]: 468 µM
bleeding time (bleeding time in mice; ACH-11 1 mg/kg, 15 min after administration): 10.71 ± 2.98 min
bleeding time (bleeding time in mice; ACH-11 3 mg/kg, 15 min after administration): 11.73 ± 2.68 min
bleeding time (bleeding time in mice; ACH-11 9 mg/kg, 15 min after administration): 14.01 ± 1.88 min
bleeding time (effect in words) (bleeding time in mice; ACH-11 3 and 1 mg/kg, compared with vehicle): did not significantly prolong the bleeding time

CC(=O)Oc1ccccc1C(=O)O [Aspirin, aspirin]
Numbers of lethal/total ([4]; vehicle 9/10, P = 0.0055 versus vehicle): 2/10
Protection rate ([4]; vehicle 10%, P = 0.0055 versus vehicle, n = 10): 80^** %
reduction of thrombus weight [5]: 59.10 ± 2.98%
bleeding time (bleeding time in mice; aspirin 9 mg/kg, 30 min after administration): 17.03 ± 2.86 min

LTFPRIVFVLG [fraction C4, RP-HPLC fraction of fraction C, purity greater than 96%; peptide … (natural ACH-11)]
FXa inhibitory activity (in words) (FXa [6]): displayed the highest FXa inhibitory activity
